Results on 11 molecules are retold here after ChEMBL document CHEMBL1151383, “Antitumor agents 50. 1 Morindaparvin-A, a new antileukemic anthraquinone, and alizarin-1-methyl ether from Morinda parvifolia, and the antileukemic activity of the related derivatives” (1982).

The structures appear in SMILES notation. ≈ marks a conversion by molar mass, not a printed value. Calls of active or inactive are those of the source. No cut-off for these calls is given here. A value given as a limit tells only on which side of the number the result lay.

Holding throughout (assay type): functional
The subject of one assay is KB. The experiment in a line: Cytotoxicity against human KB cells. Conditions: read-out: ED50 (the source's name).
The test system of assay [1] is P388. In words: Antileukemic activity against mouse P388 cells xenografted in BDF1 mouse at 10 mg/kg/day relative to control.
Assay [2] has as its system P388. The experiment in a line: Cytotoxicity against mouse P388 cells. Conditions: read-out: ED50 (the source's name).
Assay [3] is described as follows: Antitumor activity against mouse CA-755 cells xenografted in mouse assessed as reduction in tumor weight at 450 mg/kg/day. Set-up: scale not given: the % may be the effect or the level left.

The T/C is the result in the treated group divided by that in the control group, in per cent. Consider `O=C1c2ccccc2C(=O)c2c1ccc1c2OCO1`, for which the results for the EC50 with KB and in the assay with P388 [2] were greater than 10 µg/mL and 1.85 µg/mL (≈ 7.33 µM), respectively. The same molecule yielded a T/C in the assay on P388 [1] of 129%.
In the assay with P388 [1], `O=C1c2ccccc2C(=O)c2c1ccc1c2OCCO1` showed a T/C of 130%.
Same read-out and setting: the figure for `COc1ccc2c(c1O)C(=O)c1ccccc1C2=O` is 126%.
Turning to `CC(C)=CC(=O)Oc1ccc2c(c1O)C(=O)c1ccccc1C2=O`, the outcome in the assay on P388 [1] was inactive.
Still for that read-out and setting: the entry for `CC(=O)Oc1ccc2c(c1OC(C)=O)C(=O)c1ccccc1C2=O` is “inactive”.
Take `COc1c(O)ccc2c1C(=O)c1ccccc1C2=O`: the EC50 in the assay with KB is greater than 10 µg/mL; in the assay on P388 [2] it was 27 µg/mL (≈ 106 µM). This molecule also displayed a T/C with P388 [1] of 136%.
As to `CC(=O)Oc1ccc2c(c1O)C(=O)c1ccccc1C2=O`, the outcome with P388 [1] was inactive.
Take `O=C(/C=C/c1ccccc1)Oc1ccc2c(c1OC(=O)/C=C/c1ccccc1)C(=O)c1ccccc1C2=O`: the result in the assay with P388 [1] was inactive.
For `CC(C)=CC(=O)Oc1ccc2c(c1OC(=O)C=C(C)C)C(=O)c1ccccc1C2=O`, the result with P388 [1] was inactive.
`O=C1c2ccccc2C(=O)c2c1ccc(O)c2O` [ATHRAQUINONES A] yielded a T/C with P388 [1] of 134%. Further, the Activity in assay [3] amounted to 60%.
For the molecule `O=C(/C=C/c1ccccc1)Oc1ccc2c(c1O)C(=O)c1ccccc1C2=O`, the result in the assay on P388 [1] was inactive.
